The results in this text go back to ChEMBL document CHEMBL1201862, “PubChem BioAssay data set” (2004).

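Following 48 hours of exposure in 96-well plates, responses at five concentrations were used to interpolate endpoints linearly. GI50 marks 50% less growth.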 The source made the active and inactive calls. Rule as the data show it: active = GI50 up to about 1.1 µM and inactive = higher. Bounds are passed on as bounds.

Some test systems named below: NCI-H23; LOX IMVI; PC-3; SK-OV-3; EKVX; Malme-3M; MOLT-4; IGROV-1; SW-620; CCRF-CEM; HOP-62; ACHN; SN12C; M14; HT-29; SF-539; RXF 393; MCF7; Hs-578T; UO-31.
Holding throughout (test): NCI-60 cell line screen, 48 h

Turning to `COc1ccc(C2SC(=N)Nc3c2c(C)nn3C(=O)c2ccccc2O)cc1` (configuration not stated), the GI50 was 0.933 µM (active) in the experiment with NCI-H23; 3.6 µM (inactive) in the experiment on LOX IMVI; 3.81 µM (inactive) with PC-3; 5.32 µM (inactive) in the experiment on SK-OV-3; 7.38 µM (inactive) in the experiment with EKVX; 0.659 µM (active) with Malme-3M. For the same compound, the GI50 in the experiment with MOLT-4 is 1.81 µM (inactive); with IGROV-1, 0.497 µM (active); in the experiment with SW-620, 5.47 µM (inactive); in the experiment with CCRF-CEM, 2.04 µM (inactive); in the experiment on HOP-62, 2.77 µM (inactive); in the experiment with ACHN, 0.374 µM (active). For the same compound, the GI50 was 2.44 µM (inactive) with SN12C; 1.67 µM (inactive) with M14; 5.11 µM (inactive) in the experiment on HT-29; 0.27 µM (active) with SF-539; 0.532 µM (active) in the experiment with RXF 393; 1.61 µM (inactive) in the experiment on MCF7. Besides, the GI50 in the experiment with Hs-578T was 0.49 µM (active).

Regarding `Cc1nc(SCC(=O)Nc2ccccc2)c2sc(=S)n(-c3ccccc3)c2n1`, the GI50 with NCI-H23, in the experiment with LOX IMVI, with PC-3, with SK-OV-3, in the experiment with EKVX and with Malme-3M was > 10 µM (inactive) throughout. Also, the GI50 with MOLT-4 was > 10 µM (inactive); with IGROV-1 it was > 10 µM (inactive); with SW-620, > 10 µM (inactive); in the experiment on CCRF-CEM, > 10 µM (inactive); in the experiment with HOP-62, 8.71 µM (inactive); in the experiment with ACHN it was > 10 µM (inactive). The GI50 in the experiment with SN12C is > 10 µM (inactive); with M14, > 10 µM (inactive); with HT-29, > 10 µM (inactive); with SF-539, 4.44 µM (inactive); in the experiment with RXF 393 it was > 10 µM (inactive); in the experiment on MCF7, > 10 µM (inactive). Further, in the experiment on Hs-578T, the GI50 was 4.25 µM (inactive).

For `COC(=O)C(Cc1ccccc1)NC(=O)C(CCC(=O)OCc1ccccc1)NC(=O)OC(C)(C)C` (configuration not stated), the GI50 in the experiment on NCI-H23 was > 100 µM (inactive); with LOX IMVI, 30.3 µM (inactive); in the experiment with PC-3, 81.7 µM (inactive); in the experiment on SK-OV-3, > 100 µM (inactive); with EKVX it was > 100 µM (inactive); in the experiment on UO-31 it was 26.1 µM (inactive). Moreover, the GI50 with Malme-3M was > 100 µM (inactive); in the experiment with MOLT-4, > 100 µM (inactive); in the experiment on IGROV-1 it was > 100 µM (inactive); with SW-620, 63.8 µM (inactive); in the experiment on CCRF-CEM, 64.9 µM (inactive); with HOP-62 it was > 100 µM (inactive). Also, the GI50 with ACHN is 68.9 µM (inactive); in the experiment on SN12C it was 82.6 µM (inactive); in the experiment on M14, > 100 µM (inactive); in the experiment on HT-29 it was 35.6 µM (inactive); in the experiment with SF-539, > 100 µM (inactive); with RXF 393 it was > 100 µM (inactive). For the same compound, the GI50 is 82.8 µM (inactive) in the experiment on MCF7 and > 100 µM (inactive) with Hs-578T.

Consider `[N-]=[N+]=CC(=O)C1CCN(c2ccccc2)C1=O` (configuration not stated), for which the GI50 with NCI-H23, in the experiment on LOX IMVI, in the experiment on PC-3, with SK-OV-3, in the experiment on EKVX and with UO-31 was > 10 µM (inactive) each time. The GI50 in the experiment on Malme-3M, in the experiment with MOLT-4, in the experiment with IGROV-1, in the experiment with SW-620, in the experiment on CCRF-CEM and in the experiment on HOP-62 was > 10 µM (inactive) in each case. Besides, the GI50 with ACHN, in the experiment with SN12C, in the experiment with M14, with HT-29, in the experiment on SF-539 and with RXF 393 was > 10 µM (inactive) in each case. For the same compound, the GI50 in the experiment on MCF7 and in the experiment with Hs-578T was > 10 µM (inactive) throughout.

Turning to `O=C1Oc2ccccc2C(=O)/C1=C/N1C(=O)/C(=C/c2ccc3c(c2)OCO3)SC1=S`, the GI50 in the experiment with NCI-H23 is 11.8 µM (inactive); in the experiment on LOX IMVI, 33.3 µM (inactive); in the experiment on PC-3, 15.8 µM (inactive); with SK-OV-3, 22.5 µM (inactive); in the experiment on EKVX, 28.5 µM (inactive); in the experiment with Malme-3M, 19.8 µM (inactive). Besides, the GI50 in the experiment with MOLT-4 is 17.5 µM (inactive); in the experiment on IGROV-1, 13.6 µM (inactive); in the experiment on SW-620, 22.8 µM (inactive); with CCRF-CEM, 26.1 µM (inactive); in the experiment on HOP-62, 14.6 µM (inactive); in the experiment on ACHN it was 11.8 µM (inactive). Besides, the GI50 was 18.2 µM (inactive) in the experiment with SN12C; 17.9 µM (inactive) in the experiment on M14; 21.2 µM (inactive) with HT-29; 11.5 µM (inactive) with SF-539; 17.2 µM (inactive) in the experiment with RXF 393; 20.7 µM (inactive) in the experiment on MCF7. Moreover, the GI50 in the experiment on Hs-578T is 1.32 µM (inactive).

Regarding `O=C(O)C1=CN(c2ccncc2)C(c2ccco2)=CC1c1ccccc1[N+](=O)[O-]` (configuration not stated), the GI50 with NCI-H23 is 14.5 µM (inactive); in the experiment with LOX IMVI, 1.97 µM (inactive); in the experiment with PC-3, 13.9 µM (inactive); in the experiment with SK-OV-3 it was 16.3 µM (inactive); in the experiment with EKVX, 6.58 µM (inactive); in the experiment with UO-31, 10.4 µM (inactive). Besides, the GI50 is 9.53 µM (inactive) in the experiment with Malme-3M; 3.03 µM (inactive) with MOLT-4; 2 µM (inactive) in the experiment with IGROV-1; 10.2 µM (inactive) with SW-620; 2.69 µM (inactive) in the experiment with CCRF-CEM; 13.8 µM (inactive) with HOP-62. The GI50 was 2.1 µM (inactive) in the experiment with ACHN; 13.6 µM (inactive) in the experiment on SN12C; 10.7 µM (inactive) with M14; 2.13 µM (inactive) in the experiment with HT-29; 3.11 µM (inactive) in the experiment with SF-539; 6.31 µM (inactive) with RXF 393. Moreover, the GI50 with MCF7 is 2.99 µM (inactive); in the experiment on Hs-578T, 14.4 µM (inactive).

In the case of `CC(OCc1ccccc1)C(NC(=O)C1CSSCC(NC(=O)C(Cc2ccccc2)NC(=O)OCc2ccccc2)C(=O)NC(Cc2ccccc2)C(=O)NC(Cc2cn(C=O)c3ccccc23)C(=O)NC(CCCCNC(=O)OCc2ccccc2)C(=O)NC(C(C)OCc2ccccc2)C(=O)N1)C(N)=O` (configuration not stated), the GI50 with NCI-H23 is 33.4 µM (inactive); with LOX IMVI it was 20 µM (inactive); with PC-3 it was 19.1 µM (inactive); with SK-OV-3, > 35.2 µM (inactive); in the experiment with EKVX, > 83.2 µM (inactive); with UO-31, 78.3 µM (inactive). Moreover, the GI50 is 41.1 µM (inactive) in the experiment on Malme-3M; 2.81 µM (inactive) with MOLT-4; 22.6 µM (inactive) in the experiment with IGROV-1; 13.4 µM (inactive) in the experiment on SW-620; 36.6 µM (inactive) with CCRF-CEM; 55.1 µM (inactive) with HOP-62. In addition, the GI50 in the experiment with ACHN was > 59.6 µM (inactive); in the experiment on SN12C, > 100 µM (inactive); with M14, 21.1 µM (inactive); in the experiment on HT-29, 6.04 µM (inactive); in the experiment on SF-539, > 100 µM (inactive); in the experiment on RXF 393, 97.1 µM (inactive). Besides, the GI50 in the experiment on MCF7 is 8.02 µM (inactive); in the experiment on Hs-578T, > 74.8 µM (inactive).
